Assay results taken from patent US20240252508A1, “Novel glucose uptake inhibitors for use in the treatment of cancer” (NOVELYEAST BV, priority 2021, published 2024).
Entries after “also recorded” stand apart in the source; their conditions may differ. Like-named read-outs stand apart in the source and are kept apart here.

Legend:
[1] = tested on: A549 lung adenocarcinoma cells; assay: A549 cell proliferation / growth inhibition; assay type: cell-based, human; details: 1 mM glucose; for Potency in reducing maximal growth rate of A549 cells: 6.25-50 μM
Procedure, shortened: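 A549 growth screened in RPMI with 1 mM glucose, compounds at 50 μM; cell number from counts of Hoechst-stained nuclei after 3 days. Growth curves also followed by IncuCyte phase-contrast confluency over 3–5 days (1000–1500 cells/well), DMSO ≤0.1%, ≥4 technical repeats.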

[2] = tested on: KMS-12-PE multiple myeloma cells; assay: Steady-state glucose consumption and lactate production in KMS-12-PE cells; assay type: cell-based, human; details: 25 μM, 1 mM glucose, 8 h
Procedure: (§1) The influence of WBC compounds on the steady-state glucose consumption rate was studied in the A549 adenocarcinoma and KMS-12-PE multiple myeloma cell lines. As such, different parameters needed to be optimized depending on whether cells were adherent or in suspension. As such, A549 cells were incubated at 125,000 cells/well in a 24-well plate in 300 μL RPMI medium for 8 h. For the KMS-12-PE cell line, 100,000 cells/well were incubated in 100 μL RPMI medium in a 96-well plate for 8 h. Medium was collected, spun down and HPLC-analyzed for measuring glucose and lactate levels. Metabolite levels were corrected for cell number, which always varied little over the span of 8 h. For every condition, at least 4 technical repeats were included.

tps1Δ cells [3] = assay: Zero-trans glucose uptake in tps1Δ yeast cells; assay type: cell-based, S. cerevisiae; details: 2.5 mM glucose, tps1Δ cells
Procedure: Zero-trans uptake of radioactively labeled [U-^14C]glucose, [U-^14C]fructose or [U-^14C]galactose by S. cerevisiae cells was determined in accordance with previous studies^44,66. Cells were grown on different carbon sources depending on the experiment. For measuring glucose uptake activity in the tps1Δ and tps1Δ hxtA strains (FIG. 1b,c), cells were grown on YP medium containing 3% glycerol (measurement of 10s). Typically, for compound characterization and kinetic studies in wild type and tps1Δ strains, cells were (pre)grown on Complete Synthetic medium supplemented with 2% galactose (measurement of 10s). In the experiments on the influence of hexokinase activity on the sugar uptake rate, the measurement duration was shortened to 5s and cells were always grown on YP medium containing 3% glycerol and 2% ethanol. After harvesting, cells were washed twice with ice-cold 25 mM MES-buffer pH 6, and resuspended in their respective medium without sugar to a final concentration of 45 mg (wet weight)/mL. The amount of added tracer was estimated to give a response close to at least 1000 counts per min in order to adequately counter background noise. Cells were first preincubated for 10 min at 30° C. with the compound to acclimate the cells to the temperature and to allow adequate interaction with the compound prior to uptake. Next, hexose sugar was mixed with the cell suspension, which was then incubated for 5 or 10 s, depending on the experiment, after which the cells were rapidly filtered over a glass microfiber filter (Whatman GF/C) and washed three times with ice-cold dH2O. The loaded filter was transferred to a scintillation vial containing 3 mL liquid scintillation cocktail (Ultima-Flo M, Perkin Elmer) and counted using the Hidex 300 SL. Three blank measurements per strain were typically included to account for background signal, for which the cells were first quenched before adding the radioactive label.

[4] = Warbicin toxicity and tolerability in mice; assay type: in vivo, NMRI-nu mice; details: for Loss in body weight over 20 days: daily i.p. 5, 10 and 20 mg/kg, nude mice; for AST/ALT ratio vs vehicle: sera after 20 days, 5, 10, 20 mg/kg i.p.; for Blood glucose level vs vehicle: sera post mortem after 20 days, 5, 10, 20 mg/kg i.p.
Procedure: Warbicin in vivo toxicity and tolerability was examined by subjecting NMRI-nu mice to daily intraperitoneal injection of either WBC-A, WBC-15C, WBC-4C or WBC-11C. Compounds were dosed at either 5 mg/kg, 10 mg/kg or 20 mg/kg over a period of 20 days. Three mice were used per condition. To evaluate toxicity, change in body weight was registered daily. As a humane endpoint, mice that lost more than 20% of their original body weight were prematurely sacrificed. An optimal dissolve strategy was developed to administer WBC compounds by intraperitoneal injection. Due to their considerable hydrophobicity, compounds were dissolved in a sterilized 1×PBS, 5% DMSO and 5% Tween-80 solution. For WBC-A, -15C and -4C, this gives an initial clear solution that gradually changes over time into a homogenous suspension which can still be administered in a reproducible way. For WBC-11C it immediately results in a homogenous suspension.

[5] = tested on: MCF10A breast epithelia cell line transformed with the H-RAS^V12 allele; assay: MCF10A H-RAS^V12 growth and apoptosis (IncuCyte); assay type: cell-based, human; details: 25 μM
Procedure: For both adherent A549 and MCF10Δ H-RAS^V12 cell lines, growth curves were established using the IncuCyte® ZOOM technology. By collecting phase contrast images, the IncuCyte® software provides a calculated confluency percentage from which growth curves can be deducted.
Cells were seeded at a density of 1000-1500 cells/well in a Nunc-Edge™ 96-well plate (Thermo Fisher Scientific) and growth was typically measured over 3 to 5 days. For the measurement of apoptosis induction using the MCF10Δ H-RAS^V12 cell line, the IncuCyte® Caspase-3/7 green dye was added to the medium in the recommended concentration at the beginning of the growth curve experiment. Apoptosis was detected by taking fluorescent images by excitation at 488 nm followed by IncuCyte® software analysis. Cell growth of the KMS-12-PE multiple myeloma cell line, which grows in suspension, was measured by manual cell counting. Cells were initially seeded at a density of 10^4 cells/well and incubated for 4 days after which the cell number was counted. For all cell lines, the same medium used for pregrowth was also used for the growth curve experiment, albeit with different glucose concentrations depending on the experimental design. With compound administration, the final concentration of DMSO never exceeded 0.1%. Typically, at least four technical repeats were included per condition.

[6] = tested on: A549 lung adenocarcinoma cells; assay: 2-deoxyglucose uptake in A549 cells; assay type: cell-based, human; details: for Type of inhibition of 2-deoxyglucose uptake in A549 cells: Lineweaver-Burk plot analysis
Procedure: Zero-trans glucose uptake in A549 cells was approximated by measuring the uptake of [1,2-^3H]2-deoxyglucose. For this purpose, A549 cells were pregrown in RPMI medium containing 10 mM glucose in a 24-well plate to a cell density of around 100,000 cells/well. Prior to adding radioactive label, cells were gently washed twice in Krebs-Ringer-HEPES buffer (50 mM HEPES pH 7.4, 137 mM NaCl, 4.7 mM KCl, […], 1.3 mM MgSO4 and 0.1% w/v BSA) at 30° C. to remove any residual sugar. RPMI medium without sugar containing the compound intended for treatment, was added to the cells for 15 min at 37° C. to allow adequate interaction of the cells with the compound.
The uptake measurement was initiated by adding an equal volume of medium containing radiolabeled 2DG. After 3-4 min, medium was aspirated and cells were gently washed three times with ice-cold Krebs-Ringer-HEPES buffer. Cells were lysed by adding 200 μL of ice-cold 0.1 M NaOH solution and incubating the plate for 10 min at 37° C. Cell lysates were transferred to scintillation vials for subsequent scintillation counting. For blank measurements, cells were incubated with 50 μM Cytochalasin B prior to the uptake measurement.

[7] = tested on: U266 multiple myeloma cell line; assay: U266 proliferation (cell count); assay type: cell-based, human; details: 25 μM, 4 days, RPMI with 1 mM glucose
Procedure: a. Cell count of the U266 multiple myeloma cell line after 4 days of growth on RPMI medium with 1 mM glucose. Cells were treated with either DMSO or 25 μM of WBC-A, -15C, -4C or -11C. Glucose consumption (b.) or lactate secretion (c.) rates are shown for U266 cells incubated in RPMI medium supplemented with 1 mM glucose for 8 h.

tps1Δ cells [8] = assay: Growth rescue of tps1Δ strain on glucose (growth curves, 2% galactose medium); assay type: cell-based, S. cerevisiae
Procedure, shortened: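 tps1Δ yeast pregrown in Complete Synthetic medium with 2% galactose, washed, resuspended to OD 0.1; compounds added 10 min before glucose. Growth followed as OD595 every 30 min at 30 °C in at least three technical replicates.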

[9] = tested on: A549 lung adenocarcinoma cells; assay: Steady-state glucose consumption and lactate production in A549 cells; assay type: cell-based, human; details: 25 μM, 1 mM glucose, 8 h
Procedure: as §1

tps1Δ cells [10] = assay: Glu6P and Fru1,6bisP levels after glucose addition to tps1Δ cells; assay type: cell-based, S. cerevisiae
Procedure: For measuring metabolite levels, cells were typically grown in Complete Synthetic medium. […] However, when comparing the effect of Warbicins on metabolite profiles of wild type and tps1Δ strains (FIG. 2f-k), cells were grown on 2% galactose. When grown to exponential phase, cells were harvested by centrifugation and washed twice with ice-cold 25 mM 2-(N-Morpholino)ethanesulfonic acid (MES) buffer, pH 6. Cells were suspended in Complete Synthetic medium without sugar at a concentration of 75 mg (wet weight)/mL followed by a temperature equilibration at 30° C. in a shaking water bath for 30 min. Depending on the experiment, a final concentration of 2.5 mM, 7.5 mM or 10 mM glucose was added to the cell suspension. Compounds were added 10 min prior to glucose addition. […]
Through endpoint measurement of the absorbance of NADH or NADPH at 340 nm, metabolite concentrations were calculated by applying Lambert's Law. Different metabolites were measured through the use of coupled enzymatic reactions. […] Depending on the measured metabolite, different co-factors and auxiliary enzymes were added. For measuring glucose-6-phosphate, 0.8 mg/ml NADP^+ was added to the assay buffer after which the baseline absorbance was measured. […] After stabilization of the OD340 spectra, ATP concentrations were measured by additionally adding 10 mM MgCl2 and 0.5 mM glucose to the assay buffer. […]

Compound | Potency in reducing maximal growth rate of A549 cells [1] | Glucose consumption and lactate production in KMS-12-PE cells [2] | Loss in body weight over 20 days [4] | AST/ALT ratio vs vehicle [4] | Blood glucose level vs vehicle [4] | Proliferation of MCF10A H-RAS^V12 cell line on 1 mM glucose [5] | Type of inhibition of 2-deoxyglucose uptake in A549 cells [6] | Proliferation of U266 cell line [7] | Glucose consumption and lactate production in A549 cells [9] | also measured
Cc1nc(SCC(=O)c2ccc3c(c2)NC(=O)CO3)c2c(-c3cccs3)csc2n1 [WBC-11C] | most | inhibited | no significant loss in body weight; also recorded: No significant difference | No significant difference | No significant difference | highest potency | uncompetitive | inhibit proliferation | inhibited | IC50 (tps1Δ cells [3]): 44 µM; Body weight drop at 10 and 5 mg/kg around day 5 and 11 ([4]; daily i.p. 10 and 5 mg/kg): small transient drop; Toxic effects in organs at autopsy, 20 and 10 mg/kg ([4]; daily i.p. 20 and 10 mg/kg, not observed at lower concentrations): toxic effects were seen in the liver and other organs; Induction of apoptosis (caspase 3/7 dye) in MCF10A H-RAS^V12 cells ([5]; 1 mM glucose): strong induction of apoptosis; Ki ([6]; Cornish-Bowden plot analysis, printed K′, read-out: K′i, 2-deoxyglucose uptake in A549 cells): 7.53 µM; Minimal rescue concentration for growth of tps1Δ cells on 2.5 mM glucose (tps1Δ cells [8]; 2.5 mM glucose): 50 µM
Cc1nc(NCC(=O)NCc2ccco2)c2c(-c3ccccc3)csc2n1 [WBC-4C] | intermediate potency | inhibited | no significant loss in body weight; also recorded: No significant difference | No significant difference | No significant difference | highest potency | noncompetitive | inhibit proliferation | inhibited | Weight loss of one single mouse sacrificed at day 19 ([4]; daily i.p. 20 mg/kg): 20%; Other abnormalities at autopsy ([4]; daily i.p. 5, 10, 20 mg/kg, 20 days): No other abnormalities; Ki ([6]; Dixon plot analysis, read-out: Ki (=K′i), 2-deoxyglucose uptake in A549 cells): 26.8 µM
Cc1nc(SCC(N)=O)c2c3c(sc2n1)CCCC3 [55C] | – | – | – | – | – | – | – | – | – | Selected from primary screen for growth inhibition of A549 cells at 50 μM ([1]; 50 μM compound): No; Glu6P and Fru1,6bisP hyperaccumulation after addition of 2.5 mM glucose (tps1Δ cells [10]): did not prevent hyperaccumulation of sugar phosphates; Rescue of the tps1Δ strain on 2.5 mM glucose at 100 μM (tps1Δ cells [8]; 100 μM compound, 2.5 mM glucose): No; Rescue of tps1Δ cells on 2.5 mM glucose (tps1Δ cells [8]; 100 μM, 2% galactose + 2.5 mM glucose): highly active
